Read-outs that look alike come from different tables or passages of the source. Starred links: 1 amine or outer side, 2 acyl side, 3 side chain; linkers in the order of their positions; H or OH if unused. Positions of bridges follow the written chain, without caps; N, C: chain ends. Non-standard residues stand in square brackets, D forms with d. Groups on a side chain read outwards from the residue. Chains are numbered I, II in the order given. No end group written: not given here. *: point of attachment. C20 diacid = O=C(O)CCCCCCCCCCCCCCCCCCC(=O)*; C18 diacid = O=C(O)CCCCCCCCCCCCCCCCC(=O)*; γGlu = O=C(O)[C@H](CCC(=O)[*:2])N[*:1]; εLys = N[C@@H](CCCCN[*:1])C(=O)[*:2]; NMeR = CN[C@@H](CCCNC(=N)N)C(=O)O; AEEA = NCCOCCOCC(=O)O; Aib = CC(C)(N)C(=O)O; Ahx = NCCCCCC(=O)O
Legend:
Assay type in all cases: cell-based
[1] = biological target: T1, hNPY2R (Homo sapiens, UniProt P49146); assay: hNPY2R CreLuc reporter gene assay in 0.5% and 100% plasma; conditions: CreLuc reporter gene assay, 0.5% human plasma; read-out: hNPY2R 0.5% hP
T1 construct: expressed in transfected cells; host or cells: HEK-293 cells carrying a CRE-luciferase reporter gene
T1 sequence (P49146 1-381): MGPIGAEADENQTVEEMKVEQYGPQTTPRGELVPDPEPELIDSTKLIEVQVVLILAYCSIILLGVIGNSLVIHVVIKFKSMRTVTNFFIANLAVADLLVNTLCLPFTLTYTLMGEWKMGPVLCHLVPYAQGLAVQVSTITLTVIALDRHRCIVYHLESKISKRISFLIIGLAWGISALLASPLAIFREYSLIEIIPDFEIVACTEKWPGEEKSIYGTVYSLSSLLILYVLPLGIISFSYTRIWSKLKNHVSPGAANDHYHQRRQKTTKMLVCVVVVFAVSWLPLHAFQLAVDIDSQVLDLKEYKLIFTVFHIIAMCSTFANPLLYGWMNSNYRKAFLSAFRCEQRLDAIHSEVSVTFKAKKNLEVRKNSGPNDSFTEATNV
Text: (§1) Example 1: hGLPR/hGIPR/hNPY2R CreLuc Assay in 0.5% and 100% Plasma
(§2) CHO and HEK-293 recombinant cell lines express a luciferase reporter gene under control of the cAMP responsive element (CRE). As a second recombinant protein the GLP-1 and NPY2 receptors were expressed in the reporter gene HEK cells, and the GIP receptor was expressed in the reporter gene CHO cells, respectively. Stimulation of these recombinant cells with an agonist leads to an increase of intracellular cAMP levels. In the presence of cAMP, the transcription factor CRE binding protein (CREB) binds to the CRE and to the CREB binding protein (CBP), which leads to transcription of the luciferase reporter gene. Peptides upon serial-dilution in 100% DMSO were transferred into 384-well assay plates with 5 μl pre-dispensed assay buffer (1×HBSS, 20 mM HEPES, pH7.4 supplemented with 0.5% human plasma) using acoustic dispensing on a Labcyte ECHO. Cryo-preserved transgenic reporter gene cells were thawed in assay buffer. 20 μl (10.000 cells/well) were added to the plate with the peptides and incubated for 4 hours at 37° C. in a humidified incubator. Following incubation, assay plates are equilibrated to room temperature, followed by addition of 25 μl of Bright-GIo™ Luciferase reagent, incubation at room temperature for 10 minutes and analysis of luminescence (Envision Reader). Concentration response evaluation of compounds was performed with 8 concentrations of peptides (covering four decades). EC50 values were calculated by non-linear regression using sigmoid concentration-response with variable slope. The same assays were run in the presence of 100% plasma with no additional buffer constituents.

[2] = biological target: T2, hGLP1R (Homo sapiens, UniProt P43220); assay: hGLP1R CreLuc reporter gene assay in 0.5% and 100% plasma; conditions: CreLuc reporter gene assay
T2 construct: expressed in transfected cells; host or cells: HEK-293 cells carrying a CRE-luciferase reporter gene
T2 sequence (P43220 24-463): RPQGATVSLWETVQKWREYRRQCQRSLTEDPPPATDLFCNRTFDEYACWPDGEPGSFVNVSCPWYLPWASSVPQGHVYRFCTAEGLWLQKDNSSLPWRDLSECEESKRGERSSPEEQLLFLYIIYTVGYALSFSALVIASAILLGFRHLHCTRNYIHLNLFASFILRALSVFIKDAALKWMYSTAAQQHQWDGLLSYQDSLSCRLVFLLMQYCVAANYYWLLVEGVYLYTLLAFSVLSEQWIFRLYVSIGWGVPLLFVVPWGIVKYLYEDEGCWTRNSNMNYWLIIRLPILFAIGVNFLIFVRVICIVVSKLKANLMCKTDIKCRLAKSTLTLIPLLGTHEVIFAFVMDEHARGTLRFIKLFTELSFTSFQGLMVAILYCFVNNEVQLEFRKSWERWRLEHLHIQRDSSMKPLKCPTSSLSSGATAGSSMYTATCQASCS
Text: as §1, §2

[3] = biological target: T3, hGIPR (Homo sapiens, UniProt P48546); assay: hGIPR CreLuc reporter gene assay in 0.5% and 100% plasma; conditions: CreLuc reporter gene assay
T3 construct: expressed in transfected cells; host or cells: CHO cells carrying a CRE-luciferase reporter gene
T3 sequence (P48546 22-466): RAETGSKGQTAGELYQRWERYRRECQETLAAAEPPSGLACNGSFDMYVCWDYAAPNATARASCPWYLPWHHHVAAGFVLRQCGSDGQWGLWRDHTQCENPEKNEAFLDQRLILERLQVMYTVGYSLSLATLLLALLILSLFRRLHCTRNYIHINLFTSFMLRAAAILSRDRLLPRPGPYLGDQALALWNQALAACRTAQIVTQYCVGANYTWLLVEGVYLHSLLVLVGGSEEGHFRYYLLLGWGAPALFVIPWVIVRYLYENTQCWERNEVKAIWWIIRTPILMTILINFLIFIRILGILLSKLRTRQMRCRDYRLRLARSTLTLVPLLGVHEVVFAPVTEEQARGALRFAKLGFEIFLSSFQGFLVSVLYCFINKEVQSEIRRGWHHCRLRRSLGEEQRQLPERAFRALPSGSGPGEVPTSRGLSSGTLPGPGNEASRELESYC
Text: as §1, §2

[4] = 0.5% human plasma, read-out: hGLP1R 0.5% hP
[5] = 0.5% human plasma, read-out: hGIPR 0.5% hP
[6] = 100% human plasma, read-out: hGIPR 100% hP
[7] = 100% human plasma, read-out: hGLP1R 100% hP

Substance	EC50 [2, 4] [nM]	EC50 [3, 5] [nM]	EC50 [3, 6] [nM]	other results
H-Y[Aib]EGTFTSDYSI[Aib]LE[Aib]KAQ[Aib]EFVEWLIK([εLys-γGlu-γGlu-γGlu-γGlu-γGlu-γGlu-C20 diacid])GGPSSGASLRHYYNWLTRQRY-NH2 [Compound 24, Y-Aib-E-G-T-F-T-S-D-Y-S-I-Aib-L-E-Aib-K-A-Q-Aib-E-F-V-E-W-L-I-K(1,3)-GGPSSGASLRHYYNWLTRQRY-NH2.C20DA-gGlu-gGlu-gGlu-gGlu-gGlu-gGlu-eLys(1,2)]				EC50 [1]: 26.8 nM
H-Y[Aib]EGTFTSDYSI[Aib]LEKQAQ[Aib]AFVQWLIK([AEEA-AEEA-γGlu-γGlu-γGlu-γGlu-γGlu-C20 diacid])GGPSEGASLRHYYNWLTRQRY-NH2 [Compound 228, Y-Aib-E-G-T-F-T-S-D-Y-S-I-Aib-L-E-K-Q-A-Q-Aib-A-F-V-Q-W-L-I-K(1,3)-GGPSEGASLRHYYNWLTRQRY-NH2.C20DA-gGlu-gGlu-gGlu-gGlu-gGlu-OEG-OEG(1,2)]	0.12	0.23	1.52	
H-Y[Aib]EGTFTSDYSI[Aib]LEKQAQ[Aib]AFVQWLIK([γGlu-γGlu-γGlu-γGlu-C18 diacid])GGPSEGASLRHYYNWLTRQRY-NH2 [Compound 268, Y-Aib-E-G-T-F-T-S-D-Y-S-I-Aib-L-E-K-Q-A-Q-Aib-A-F-V-Q-W-L-I-K(1,3)-GGPSEGASLRHYYNWLTRQRY-NH2.C18DA-gGlu-gGlu-gGlu-gGlu(1,2)]	0.08	0.17	1.01	
Y[Aib]EGTFTSDYSI[Aib]LEKQAQ[Aib]EFVQWLIK([AEEA-AEEA-γGlu-γGlu-γGlu-C18 diacid])GGPSEGASLRHYYNWLTRQRY-NH2 [Compound 160, Y-Aib-E-G-T-F-T-S-D-Y-S-I-Aib-L-E-K-Q-A-Q-Aib-E-F-V-Q-W-L-I-K(1,3)-GGPSEGASLRHYYNWLTRQRY-NH2.C18DA-gGlu-gGlu-gGlu-OEG-OEG(1,2)]	0.3	0.33	0.91	
H-Y[Aib]EGTFTSDYSI[Aib]LEKQAQ[Aib]AFVEWLIK([AEEA-AEEA-γGlu-γGlu-γGlu-γGlu-γGlu-C18 diacid])GGPSSGASLRHYYNWLTRQRY-NH2 [Compound 261, Y-Aib-E-G-T-F-T-S-D-Y-S-I-Aib-L-E-K-Q-A-Q-Aib-A-F-V-E-W-L-I-K(1,3)-GGPSSGASLRHYYNWLTRQRY-NH2.C18DA-gGlu-gGlu-gGlu-gGlu-gGlu-OEG-OEG(1,2)]	0.15	0.18	1.15	
H-Y[Aib]EGTFTSDYSI[Aib]LEKQAQ[Aib]AFVEWLIK([Ahx-γGlu-γGlu-γGlu-γGlu-γGlu-C18 diacid])GGPSEGASLRHYYNWLTRQRY-NH2 [Compound 304, Y-Aib-E-G-T-F-T-S-D-Y-S-I-Aib-L-E-K-Q-A-Q-Aib-A-F-V-E-W-L-I-K(1,3)-GGPSEGASLRHYYNWLTRQRY-NH2.C18DA-gGlu-gGlu-gGlu-gGlu-gGlu-AHX(1,2)]	0.35	0.23	2.35	
H-Y[Aib]EGTFTSDYSI[Aib]LEKQAQ[Aib]AFVEWLIK([εLys-γGlu-γGlu-γGlu-γGlu-γGlu-γGlu-C20 diacid])GGPSSGADLRHYLNWLTRQRY-NH2 [Compound 72, Y-Aib-E-G-T-F-T-S-D-Y-S-I-Aib-L-E-K-Q-A-Q-Aib-A-F-V-E-W-L-I-K(1,3)-GGPSSGADLRHYLNWLTRQRY-NH2.C20DA-gGlu-gGlu-gGlu-gGlu-gGlu-gGlu-eLys(1,2)]	0.15	0.29		EC50 [2, 7]: 2.87 nM
H-Y[Aib]EGTFTSDYSI[Aib]LEKQAQ[Aib]AFVQWLIK([Ahx-γGlu-γGlu-γGlu-γGlu-γGlu-C18 diacid])GGPEEGASLRHYYNWLTRQRY-NH2 [Compound 162, Y-Aib-E-G-T-F-T-S-D-Y-S-I-Aib-L-E-K-Q-A-Q-Aib-A-F-V-Q-W-L-I-K(1,3)-GGPEEGASLRHYYNWLTRQRY-NH2.C18DA-gGlu-gGlu-gGlu-gGlu-gGlu-AHX(1,2)]	0.2	0.25	1.61	
H-Y[Aib]EGTFTSDYSI[Aib]LEKQAQ[Aib]AFVEWLIK([εLys-γGlu-γGlu-γGlu-γGlu-γGlu-γGlu-C20 diacid])GGPSSGAS[Aib]RHYYNWLTRQRY-NH2 [Compound 118, Y-Aib-E-G-T-F-T-S-D-Y-S-I-Aib-L-E-K-Q-A-Q-Aib-A-F-V-E-W-L-I-K(1,3)-G-G-P-S-S-G-A-S-Aib-R-H-Y-Y-N-W-L-T-R-Q-R-Y-NH2.C20DA-gGlu-gGlu-gGlu-gGlu-gGlu-gGlu-eLys(1,2)]	0.05	0.06	0.55	
H-Y[Aib]EGTFTSDYSI[Aib]LEKQAQ[Aib]AFVEWLIK([εLys-γGlu-γGlu-γGlu-γGlu-γGlu-γGlu-C20 diacid])GGPSSGAS[Aib]RHYYNWLTRQ[NMeR]Y-NH2 [Compound 39, Y-Aib-E-G-T-F-T-S-D-Y-S-I-Aib-L-E-K-Q-A-Q-Aib-A-F-V-E-W-L-I-K(1,3)-G-G-P-S-S-G-A-S-Aib-R-H-Y-Y-N-W-L-T-R-Q-NMeR-Y-NH2.C20DA-gGlu-gGlu-gGlu-gGlu-gGlu-gGlu-eLys(1,2)]	0.09	0.06	0.4	EC50 [2, 7]: 0.82 nM
H-Y[Aib]EGTFTSDYSI[Aib]LEKQAQ[Aib]AFVQWLIK([εLys-γGlu-γGlu-γGlu-γGlu-γGlu-γGlu-C20 diacid])GGPSSGVSLRHYYNWLTRQRY-NH2 [Compound 47, Y-Aib-E-G-T-F-T-S-D-Y-S-I-Aib-L-E-K-Q-A-Q-Aib-A-F-V-Q-W-L-I-K(1,3)-GGPSSGVSLRHYYNWLTRQRY-NH2.C20DA-gGlu-gGlu-gGlu-gGlu-gGlu-gGlu-eLys(1,2)]	0.07	0.25	0.73	
H-Y[Aib]EGTFTSDYSI[Aib]LEKQAQ[Aib]AFVEWLIK([εLys-γGlu-γGlu-γGlu-γGlu-γGlu-γGlu-C20 diacid])GGPSSGASLRHYYN[Aib]LTRQRY-NH2 [Compound 218, Y-Aib-E-G-T-F-T-S-D-Y-S-I-Aib-L-E-K-Q-A-Q-Aib-A-F-V-E-W-L-I-K(1,3)-G-G-P-S-S-G-A-S-L-R-H-Y-Y-N-Aib-L-T-R-Q-R-Y-NH2.C20DA-gGlu-gGlu-gGlu-gGlu-gGlu-gGlu-eLys(1,2)]	0.16	0.36	2.35	
H-Y[Aib]EGTFTSDLSI[Aib]LEKQAQ[Aib]AFVEWLIK([εLys-γGlu-γGlu-γGlu-γGlu-γGlu-γGlu-C20 diacid])GGPSSGASLRHYYNWLTRQRY-NH2 [Compound 172, Y-Aib-E-G-T-F-T-S-D-L-S-I-Aib-L-E-K-Q-A-Q-Aib-A-F-V-E-W-L-I-K(1,3)-GGPSSGASLRHYYNWLTRQRY-NH2.C20DA-gGlu-gGlu-gGlu-gGlu-gGlu-gGlu-eLys(1,2)]				EC50 ([2]; hGLP1R 0.5% hP, 0.5% human plasma): 0.07 nM; EC50 ([2]; hGLP1R 100% hP, 100% human plasma): 2 nM; EC50 ([3]; hGIPR 0.5% hP, 0.5% human plasma): 0.21 nM; EC50 ([3]; hGIPR 100% hP, 100% human plasma): 1.83 nM
I: H-Y[Aib]EGTFTSDYSI[Aib]LEKQAQ[Aib]AFVQWLIKGGPEEGASLRHYYNWLTRQRY-NH2 / II: {C18 diacid}-EEEEEE[εLys] (amide I:28-II:C) [Compound 196, Y-Aib-E-G-T-F-T-S-D-Y-S-I-Aib-L-E-K-Q-A-Q-Aib-A-F-V-Q-W-L-I-K(1,3)-GGPEEGASLRHYYNWLTRQRY-NH2.C18DA-E-E-E-E-E-E-eLys(1,2)]	0.2	0.25		
